Test results from patent US4544665A, “1-Aryl-3-azabicyclo[3.2.0]heptanes” (American Cyanamid Company, priority 1983, dated 1985).

Key:
mice [1] = test: Tetrabenazine-induced depression (exploratory behavior); format: in vivo; set-up: key to Tetrabenazine-Induced Depression, Result: Active: A compound is considered active if 3 or more of the 10 mice are protected against the tetrabenazine-induced effects; conditions: about 25 mg/kg i.p., 30 min before tetrabenazine methanesulfonate about 39 mg/kg i.p.; for Tetrabenazine-Induced Depression, mice protected of 10: protected/tested; for Tetrabenazine-Induced Depression, Result: tested 30 min later
Description: The compounds of this invention are useful as anti-depressant agents in warm-blooded animals. The anti-depressant properties of these compounds were tested by measuring their ability to counteract depression induced in such animals by the administration of tetrabenazine methanesulfonate. Each test compound was administered intraperitoneally to 10 mice at a dose of about 25 mg/kg of body weight. Approximately thirty minutes later, tetrabenazine methanesulfonate was administered intraperitoneally to each mouse at a dose of about 39 mg/kg of body weight, which dose is known to depress markedly the exploratory behavior of normal mice. Approximately thirty minutes later, the mice were tested for their exploratory behavior as described by E. Greenblatt and A. C. Osterberg, Toxicology and Applied Pharmacology, 7: 556-578 (1965). A compound is considered active if 3 or more of the 10 mice are protected against the tetrabenazine-induced effects.

human platelet membranes = molecular target: T1, human platelet membranes (Homo sapiens, UniProt P31645); test: Platelet imipramine binding ([3H]-imipramine); set-up: key to Platelet Imipramine Binding, Result: Active: A compound is considered active if greater than about 50% inhibition is achieved at a concentration of about 10 μM; conditions: 10 μM test compound, 60 min at 0° C.; for inhibition at 10 µM: [3H]imipramine
T1 construct: from tissue; host or cells: human platelets (membranes of sonicated platelet concentrates)
Description: The activity of the compounds of this invention as anti-depressant agents was also shown in the following test which measures the ability of a test compound to inhibit [^3 H]-imipramine binding to human platelet membranes. Human platelet concentrates were diluted about 1:20 with antiprotease containing buffer of the following composition:
Approximately 0.12M: sodium chloride
Approximately 0.05M: tris buffer
Approximately 0.005N: potassium chloride
Approximately 0.025: μg/ml aprotinin
Approximately 0.5: μg/ml pepstatin
Approximately 2×10^-5 N: bacitracin
Approximately 3 mN: ethylenediaminetetraacetic acid
Approximately 1 mN: ethyleneglycol-bis-(β-aminoethyl ether)-N,N'-tetracetic acid
Such buffer was kept at about pH 6.8 to prevent platelet release and aggregation. The diluted platelets were centrifuged at about 2,500 g and then resuspended in about 50 volumes of the same buffer. The cells were then ruptured with a Branson sonicator while the suspension was maintained in an ice bath. The ruptured cells were then centrifuged at about 18,000 g, resuspended in fresh buffer and recentrifuged at about 18,000 g. The resulting membranes were then diluted with the above antiprotease buffer, which had been adjusted to about pH 7.4, and to a protein concentration of about 3.0 mg/ml.
The test compounds were dissolved in dimethylsulfoxide at a concentration of about 50 mM and then diluted about 1:10 in either water, about 0.1M hydrochloric acid or about 0.1M sodium hydroxide. They were then diluted about 1:100 in buffer to about 50 μM, and about 50 μl of this stock solution was placed in triplicate test tubes. The tubes were cooled to about 0° C. and about 200 μl of the following mixture were added:
About 100 μl of 3 mg/ml membrane in buffer
About 50 μl of 15 nM[^3 H]imipramine in buffer
The tubes were incubated for about 60 minutes at about 0° C. Controls contain either buffer alone (100%) or about 10 μM final of desmethylimipramine (DMI). The samples were diluted with about 5 ml of buffer [0.12M-sodium chloride, 0.05M-tris buffer, 0.005M-potassium chloride (pH 7.4)], vacuum filtered and washed twice with about 5 ml of buffer. Radioactivity was measured in a liquid scintillation counter and the degree of binding was calculated.

mice [2] = test: Tetrabenazine-induced ptosis; format: in vivo; set-up: key to Tetrabenazine-Induced Ptosis, Result: Active: A compound is considered active if 5 or more of 10 mice respond; conditions: about 25 mg/kg i.p.; for Tetrabenazine-Induced Ptosis, Result: 30 min before tetrabenazine methanesulfonate about 39 mg/kg i.p., examined 30 min later; for Tetrabenazine-Induced Ptosis, mice responding of 10: responders (about 75% or greater opening of palpebral aperture)/tested
Description: Inhibition of tetrabenazine-induced ptosis is observed concomitantly with the inhibition of tetrabenazine-induced depression. Ptosis is defined as more than about 75% closure of palpebral aperture induced in animals by the administration of tetrabenazine methanesulfonate. The compounds were administered intraperitoneally at a dosage of about 25 mg per kilogram of body weight to groups of 10 mice. About thirty minutes later, tetrabenazine methanesulfonate was administered intraperitoneally to each mouse at a dose of about 39 mg/kg. About thirty minutes after the injection of tetrabenazine, the mice were placed on an observation disc and examined for approximately 10 seconds for inhibition of ptosis. […] A compound is considered active if 5 or more of 10 mice respond.

T1 sequence (P31645 whole entry): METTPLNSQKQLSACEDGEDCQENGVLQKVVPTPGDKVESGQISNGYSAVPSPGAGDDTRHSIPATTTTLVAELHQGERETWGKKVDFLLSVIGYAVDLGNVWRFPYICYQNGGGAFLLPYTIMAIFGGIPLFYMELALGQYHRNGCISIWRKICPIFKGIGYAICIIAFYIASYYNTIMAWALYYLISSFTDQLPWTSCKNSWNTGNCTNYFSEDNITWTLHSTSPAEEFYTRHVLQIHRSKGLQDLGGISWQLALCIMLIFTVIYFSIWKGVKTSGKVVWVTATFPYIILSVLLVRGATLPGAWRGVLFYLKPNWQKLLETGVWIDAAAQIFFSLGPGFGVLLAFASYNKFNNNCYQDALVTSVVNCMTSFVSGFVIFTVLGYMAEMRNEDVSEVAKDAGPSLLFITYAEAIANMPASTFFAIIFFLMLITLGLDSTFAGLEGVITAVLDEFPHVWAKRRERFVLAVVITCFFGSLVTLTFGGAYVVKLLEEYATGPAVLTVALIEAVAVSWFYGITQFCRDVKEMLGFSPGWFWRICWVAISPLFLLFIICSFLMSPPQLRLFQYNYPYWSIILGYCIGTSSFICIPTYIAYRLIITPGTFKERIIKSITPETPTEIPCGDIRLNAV

| Structure (SMILES) | Tetrabenazine-Induced Depression, mice protected of 10 (mice [1]) | Tetrabenazine-Induced Depression, Result (mice [1]) | Platelet Imipramine Binding, Result (human platelet membranes) | inhibition at 10 µM (human platelet membranes) [%] | Tetrabenazine-Induced Ptosis, Result (mice [2]) | Tetrabenazine-Induced Ptosis, mice responding of 10 (mice [2]) |
| --- | --- | --- | --- | --- | --- | --- |
| CCO[C@H]1C[C@@H]2CN(C)C[C@@]21c1cccc(OC)c1 (relative stereo) [7β-Ethoxy-1β-(m-methoxyphenyl)-3-methyl-3-azabicyclo[3.2.0]heptan] | 3/10 | Active | Active | 94 | Active | 9/10 |
| COc1cccc(C23CCC2CN(C)C3)c1.O.O=C(O)/C=C/C(=O)O (centres unmarked) [1-(m-Methoxyphenyl)-3-methyl-3-azabicyclo[3.2.0]heptane, and fumarate salt monohydrate] | – | – | Active | 99.8 | – | – |
| Cc1ccc(C23CCC2CN(C)C3)cc1.O=C(O)/C=C/C(=O)O (centres unmarked) [1-(p-Methylphenyl)-3-methyl-3-azabicyclo[3.2.0]heptane, and fumarate salt] | 5/10 | Active | – | – | Active | 10/10 |
| CCO[C@@H]1C[C@@H]2CN(C)C[C@@]21c1cccc(OC)c1 (relative stereo) [7α-Ethoxy-1β-(m-methoxyphenyl)-3-methyl-3-azabicyclo[3.2.0]heptane] | – | – | Active | 92 | – | – |
